Test results published in US10813932B2, “1-pyrazolyl-3-(4-((2-anilinopyrimidin-4-yl) oxy) napththalen-1-yl) ureas as P38 MAP knase inhibitors” (Respivert Limited, priority 2011, dated 2020).

Assays:
Balb/c mice = experiment: LPS-induced neutrophil accumulation in mice; assay type: in vivo
Experimental: Non-fasted Balb/c mice were dosed by the intra tracheal route with either vehicle, or the test substance at the indicated times (within the range 2-8 hr) before stimulation of the inflammatory response by application of an LPS challenge. At T=0, mice were placed into an exposure chamber and exposed to LPS (7.0 mL, 0.5 mg/mL solution in PBS) for 30 min). After a further 8 hr the animals were anesthetized, their tracheas cannulated and BALF extracted by infusing and then withdrawing from their lungs 1.0 mL of PBS via the tracheal catheter. Total and differential white cell counts in the BALF samples were measured using a Neubaur haemocytometer. Cytospin smears of the BALF samples were prepared by centrifugation at 200 rpm for 5 min at RT and stained using a DiffQuik stain system (Dade Behring). Cells were counted using oil immersion microscopy. Data for neutrophil numbers in BAL are shown as mean±S.E.M. (standard error of the mean). The percentage inhibition of neutrophil accumulation was calculated for each treatment relative to vehicle treatment.

A/J mice = experiment: Cigarette smoke model; assay type: in vivo
Experimental: A/J mice (males, 5 weeks old) were exposed to cigarette smoke (4% cigarette smoke, diluted with air) for 30 min/day for 11 days using a Tobacco Smoke Inhalation Experiment System for small animals (Model SIS-CS; Sibata Scientific Technology, Tokyo, Japan). Test substances were administered intra-nasally (35 μL of solution in 50% DMSO/PBS) once daily for 3 days after the final cigarette smoke exposure. At 12 hr after the last dosing, each of the animals was anesthetized, the trachea cannulated and bronchoalveolar lavage fluid (BALF) was collected. The numbers of alveolar macrophages and neutrophils were determined by FACS analysis (EPICS® ALTRA II, Beckman Coulter, Inc., Fullerton, Calif., USA) using anti-mouse MOMA2 antibody (macrophage) or anti-mouse 7/4 antibody (neutrophil). BALF was centrifuged and the supernatant was collected. The level of keratinocyte chemoattractant (KC; CXCL1) in BALF was quantitated using a Quentikine® mouse KC ELISA kit (R&D systems, Inc., Minneapolis, Minn., USA).

Cc1ccc(-n2nc(C(C)(C)C)cc2NC(=O)Nc2ccc(Oc3ccnc(Nc4ccccc4)n3)c3ccccc23)cc1 [Example 1, 1-(3-(tert-Butyl)-1-(p-tolyl)-1H-pyrazol-5-yl)-3-(4-(2-(phenylamino)pyrimidin-4-yloxy)naphthalen-1-yl)urea]
LPS-induced neutrophil accumulation (Balb/c mice): dose dependent inhibition | cigarette smoke induced CXCL1 (KC) production in BALF (A/J mice): inhibited | macrophage accumulation in BALF induced by cigarette smoke (A/J mice): dose-dependent inhibition | neutrophil accumulation in BALF induced by cigarette smoke (A/J mice): dose-dependent inhibition
